Source: patent US20180236109A1, “Pain Tracking by PET-imaging (Pain-TraP)” (Universitat zu Koln, priority 2015, published 2018)

Tests used:
PSMA [1] = target: T1, PSMA (Mus musculus, UniProt O35409); assay: micro-PET tracer uptake in sciatic nerve lesion (SNI) model of neuropathic pain; type: in vivo, mice
T1 construct: from tissue; host or cells: C57BL/6 mouse, in vivo (hindpaw, thigh/sciatic nerve lesion site, sciatic nerve plexus)
Experimental: (§1) Experiments were performed in male 6- to 12-week-old C57BL/6 mice. Animals were housed on a 12/12 light/dark cycle with access to food and water ad libitum. All experiments adhered to the guidelines of the International Association for the Study of Pain and to the ARRIVE guidelines, and were approved by our local Ethics Committee for Animal Research.
Under isoflurane anesthesia, the tibial and common peroneal branches of the sciatic nerve were ligated and sectioned distally, while the sural nerve was left intact (Decosterd and Woolf, 2000); (Bourquin et al., 2006). Mechanical hypersensitivity at the lateral surface of the hindpaw (sural nerve skin area) was determined using a Dynamic Plantar Aesthesiometer as described above.
(§2) The animals were allowed to wake up in their home cage, where they remained for 50 min. Subsequently, mice were reanesthetized, killed to reduce the time of procedures on the living animal, and placed on a two-animal holder (Medres®). PET scans in list mode were performed using a Focus 220 micro PET scanner (CTI-Siemens®) with a resolution at center of field of view of 1.4 mm. Data acquisition started exactly one hour after [^18F]DCFPyL-injection and lasted […]. It was followed by a transmission scan using a ^57Co-point source for attenuation correction. Following Fourier rebinning, data were reconstructed using the iterative OSEM3D/MAP procedure (Qi et al., 1998) resulting in voxel sizes of 0.38×0.38×0.80 mm.
(§3) Four individual volumes of interest (VOIs, 24 mm^3 each) were drawn, two of which were placed over the left and right sciatic nerve plexus. The other two were positioned either over the sciatic nerve lesion in the thigh and the undamaged contra-lesional thigh (in case of SNI model), or over the hindpaws (in case of CFA model). […] The ratio of ipsi- and contralateral VOIs was calculated.
For each measurement a separate set of animals was used. […] To simplify the measurement methodology, animals were sacrificed instead of anaesthesized after 1 h and measured in a pPET. Images were analyzed for the section of maximal intensity at the site of injection, the respective areas quantified, and the ratio between ipsi- and contralateral side was calculated.
(§4) In the inflammatory pain model, “Complete Freunds Adjuvant (CFA)” was injected in the left hind paw, which leads to long-lasting inflammation and pain. To induce neuropathic pain in the “Spared nerve injury (SNI) model”, two branches of the sciatic nerve were ligated, while the third branch (the sural nerve) was left intact. In both models, pain sensitivity was measured using the Dynamic Plantar Test at the day before the PET scan. A movable force actuator was positioned below the plantar surface of the animal. A thin (0.5 mm) filament exerted increasing force, until the animal twitched its paw. The time it takes for the animal to retract its paw inversely reflects touch sensitivity.
(§5) On the next day, the PSMA tracer [^18F]DCFPyL was intravenously injected. After an uptake period of 60 min, an emission scan was performed for 30 min.

PSMA [2] = target: T1, PSMA; assay: micro-PET tracer uptake in Complete-Freund's-Adjuvant (CFA) model of inflammatory pain; type: in vivo, mice
Experimental: as §1
The mechanical sensitivity of the plantar side of a hindpaw was assessed with an automated testing device (dynamic plantar aesthesiometer; Ugo Basile). This device pushes a thin probe (0.5 mm diameter) with increasing force through a wire-grated floor against the plantar surface of the paw from beneath, and it automatically stops and records the latency time after which the animal withdraws the paw. The force increased from 0 to 5 g within 10 s (0.5 g/s ramp) and was then held at 5 g for an additional 10 s (Schmidtko et al., 2008a). The paw withdrawal latency was taken to be the mean of three consecutive trials with at least 10 s in between. After baseline measurements, 20 al of complete Freund's adjuvant (CFA; containing 1 mg/ml heat-killed Mycobacterium tuberculosis in paraffin oil 85% and mannide monooleate 15%; Sigma-Aldrich) was injected into the plantar subcutaneous space of a hindpaw, and paw withdrawal latencies were determined at the indicated timepoints after CFA injection (Schmidtko et al., 2008b).
as §2, §3
Each measurement was taken on a separate set of animals. […] To simplify the measurement methodology, animals were sacrificed instead of anaesthesized after 1 h and measured in a iPET. Images were analyzed for the section of maximal intensity at the site of injection, the respective areas quantified, and the ratio between ipsi- and contralateral side calculated.
as §4, §5

[3] = 10 MBq into tail vein, PET after 1 h
[4] = site of lesion, ipsi-/contralateral ratios, individual animals

T1 sequence (O35409 whole entry): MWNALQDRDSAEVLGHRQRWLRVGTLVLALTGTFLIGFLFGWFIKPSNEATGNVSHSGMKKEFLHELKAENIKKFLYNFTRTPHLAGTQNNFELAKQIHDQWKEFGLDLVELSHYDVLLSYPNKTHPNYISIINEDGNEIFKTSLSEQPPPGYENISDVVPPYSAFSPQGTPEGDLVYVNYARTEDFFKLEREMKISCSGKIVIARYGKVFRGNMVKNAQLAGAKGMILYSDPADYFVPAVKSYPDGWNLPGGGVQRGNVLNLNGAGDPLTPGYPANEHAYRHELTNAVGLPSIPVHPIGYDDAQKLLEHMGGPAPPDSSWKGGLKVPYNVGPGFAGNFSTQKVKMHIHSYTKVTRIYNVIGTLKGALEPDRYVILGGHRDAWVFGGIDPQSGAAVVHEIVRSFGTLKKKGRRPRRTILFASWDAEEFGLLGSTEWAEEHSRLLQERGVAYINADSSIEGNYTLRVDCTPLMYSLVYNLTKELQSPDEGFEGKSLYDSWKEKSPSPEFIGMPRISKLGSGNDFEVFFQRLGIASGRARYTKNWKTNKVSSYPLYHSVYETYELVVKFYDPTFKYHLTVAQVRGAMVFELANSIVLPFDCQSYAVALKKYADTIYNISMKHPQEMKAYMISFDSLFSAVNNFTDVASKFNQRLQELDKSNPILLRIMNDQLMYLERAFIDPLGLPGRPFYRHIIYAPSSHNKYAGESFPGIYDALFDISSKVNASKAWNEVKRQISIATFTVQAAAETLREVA

tracer uptake at the lesion site (PSMA [1]; 3, 7, and 14 days after surgery, FIG. 11B): significantly increased | tracer uptake at the contralateral side (PSMA [1]; [3]): little to no | tracer uptake in sham treated animals (PSMA [1]; [3]): little | quantification of the uptake, increase over sham-operated controls (PSMA [1]; average, FIG. 6): 2-3 fold | correlation of tracer uptake with pain sensitivity (PSMA [1]; [4]): significantly correlated | tracer uptake at the lesion site (PSMA [2]; 2, 7, and 14 days after CFA injection, FIG. 12B): significantly increased | tracer uptake at the contralateral side (PSMA [2]; 10 MBq into tail vein, PET after 1 h, contralateral paw): little to no | tracer uptake at the site of CFA injection (PSMA [2]; 10 MBq into tail vein, PET after 1 h, injected hindpaw): high | enrichment at the side of CFA injection, increase over the contra-lateral side (PSMA [2]; FIG. 3): ~2 fold | quantification of the uptake, increase over controls (PSMA [2]; average, ratio ipsi-/contralateral, FIG. 3): 2 fold | correlation of tracer uptake with pain sensitivity (PSMA [2]; [4]): significantly correlated
SMILES: O=C(O)CCC(NC(=O)NC(CCCCNC(=O)c1ccc([18F])nc1)C(=O)O)C(=O)O (stereo not shown) [[^18F]DCFPyL, 2-(3-{1-Carboxy-5-[(6-[18F]fluoro-pyridine-3-carbonyl)-amino]-pentyl}-ureido)-pen tanedioic acid]
tracer uptake at the site of injury (PSMA [1]; 10 MBq into tail vein, PET after 1 h, sciatic nerve lesion): high and strong enrichment | tracer enrichment along the nerve plexus (PSMA [1]; neuropathic pain animals): enrichment along the nerve toward the spinal cord
